The record followed here is patent US20240425523A1, “Compounds for the Degradation of EGFR Kinase” (Beigene Switzerland GMBH, priority 2023, published 2024).

Each structure is given as a SMILES string.

Holding throughout (type): cell-based
For test [1], the target named is p-EGFR Del19/C797S (H1975-clone #23 cells) (Homo sapiens, UniProt P00533). Kind of test: Cell p-EGFR inhibition assay, HTRF, H1975-clone#23 (DEL19/C797S) cells. As to conditions: 16 h treatment; for Imax (%): maximum percentage of pEGFR inhibition; for IC50: pEGFR inhibition. In outline: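 Phospho-EGFR read by overnight HTRF on lysates, normalized to DMSO-treated high control; IC50, Hill slope and Imax fitted. Compounds were applied for 16 h (10 uM top, 5-fold steps, 8 doses) to an H1975 single clone carrying only exogenous Del19/C797S EGFR after sgRNA knockout of endogenous copies.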
(Time-resolved FRET reads energy transfer from a long-lived donor to a nearby acceptor.)

In test [2] the target is T1, EGFR-L858R/C797S (H1975-clone #8 cells) (Homo sapiens, UniProt P00533, C797S/L858R).
T1 construct: expressed in transfected cells; host or cells: H1975 (endogenous EGFR knocked out, clone #8)
Kind of test: Cell degradation of EGFR, HTRF assay, H1975-clone#8 (L858R/C797S) cells. Particulars: 16 h treatment; for DC50: EGFR degradation; for Dmax: maximum percentage of degradation.

The target of test [3] is T2, EGFR L858R (BaF3-L858R cells) (Homo sapiens, UniProt P00533, L858R).
T2 construct: host or cells: BaF3
Kind of test: Cell degradation of EGFR, HTRF assay, BaF3-L858R cells. As to conditions: 16 h treatment; for DC50: EGFR degradation; for Dmax: maximum percentage of degradation. In outline: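 BaF3-L858R cells treated 16 h at 37° C, 5% CO2 with compound (top 10 uM final, 5-fold, 8 doses, 0.1% DMSO). DC50 from four-parameter fit; Dmax is maximum percent degradation.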

The target of test [4] is T3, p-EGFR L858R (BaF3-L858R cells) (Homo sapiens, UniProt P00533, L858R).
T3 construct: host or cells: BaF3
Kind of test: Cell p-EGFR inhibition assay, HTRF, BaF3-L858R cells. As to conditions: 16 h treatment; for Imax (%): maximum percentage of pEGFR inhibition; for IC50: pEGFR inhibition. In outline: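 BaF3-L858R cells treated 16 h at 37 °C, 5% CO2 with compound from 10 uM top, 5-fold dilutions, 8 doses, in 0.1% DMSO medium. Lysates read overnight by HTRF p-EGFR antibodies; IC50 fitted to four-parameter curve against DMSO high control.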

Broadly, the IC50 is the concentration at which inhibition is half-maximal. A higher IC50 goes with weaker potency in that assay. For orientation: DC50 means the concentration giving 50% degradation. High values mean a less potent degrader, low ones a more potent degrader. The Dmax is the largest share of the target that was removed. Regarding `Cc1cc2cc(n1)-c1cnn(C)c1OC[C@H]1CCC(C1)CN1/C(=N/C2=O)Nc2ccc(N3CCN([C@H]4CCN(c5ccc(C6CCC(=O)NC6=O)nc5C)CC4(F)F)CC3)cc21` (stereo partly drawn) [Example 83, 3-(5-((S)-4-(4-((7^1R,7^3S,E)-1^1,2^6-dimethyl-3-oxo-5^2,5^3-dihydro-1^1H,5^1H-9-oxa-4-aza-5(2,1)-benzo[d]imidazola-2(2,4)-pyridina-1(4,5)-pyrazola-7(1,3)-cyclopentanacyclononaphane-5^6-yl)piperazin-1-yl)-3,3-difluoropiperidin-1-yl)-6-methylpyridin-2-yl)piperidine-2,6-dione], in test [1], the “Imax (%)” value amounted to 100.7% and the IC50 turned out to be 1 nM. In test [2], it took 5.64 nM to reach half-maximal degradation (DC50) and the Dmax turned out to be 81.8%. In test [3], this molecule registered a DC50 of 4.08 nM and a Dmax of 69.1%. In test [4], the “Imax (%)” value is 96.5% and the 50% inhibitory concentration (IC50) was determined as 18 nM.
`COC[C@H]1CN(c2ccc3c(c2)N2C[C@H]4CC[C@@H](COc5c(c(C)nn5C)-c5cc(cc(C)n5)C(=O)/N=C/2N3)C4)CCN1C1CCN(c2cc(F)c([C@H]3CCC(=O)NC3=O)c(F)c2)CC1` [Example 150, (R)-3-(2,6-difluoro-4-(4-((R)-2-(methoxymethyl)-4-((7S,7^3R,E)-1^1,1^3,2^6-trimethyl-3-oxo-5^2,5^3-dihydro-1^1H,5^1H-9-oxa-4-aza-5(2,1)-benzo[d]imidazola-2(2,4)-pyridina-1(4,5)-pyrazola-7(1,3)-cyclopentanacyclononaphane-5^6-yl)piperazin-1-yl)piperidin-1-yl)phenyl)piperidine-2,6-dione]: in test [1], the “Imax (%)” value is recorded as 100.12% and the IC50 stood at 2.16 nM. In test [2], this molecule registered a 50% degradation concentration (DC50) of 7.29 nM and a Dmax of 85%. Further, in test [3], half-maximal degradation (DC50) was put at 8.77 nM and the Dmax worked out at 90.5%. Moreover, in test [4], the “Imax (%)” value is reported as 91.27% and inhibition was half-maximal at 72.1 nM (IC50).
Turning to `Cc1cc2cc(n1)-c1c(C)nn(C)c1OC[C@H]1CC[C@H](C1)CN1/C(=N/C2=O)Nc2ccc(N3CCN([C@@H]4CCN(c5ccc(OC6CCC(=O)NC6=O)cc5)C[C@@H]4F)CC3)cc21` (stereo partly drawn) [Example 144, 3-(4-((3S,4R)-3-fluoro-4-(4-((7^1R,7^3S,E)-1^1,1^3,2^6-trimethyl-3-oxo-5^2,5^3-dihydro-1^1H,5^1H-9-oxa-4-aza-5(2,1)-benzo[d]imidazola-2(2,4)-pyridina-1(4,5)-pyrazola-7(1,3)-cyclopentanacyclononaphane-5^6-yl)piperazin-1-yl)piperidin-1-yl)phenoxy)piperidine-2,6-dione], in test [1], the “Imax (%)” value worked out at 100.78% and the IC50 turned out to be 0.97 nM. Moreover, in test [2], it took 0.938 nM to reach half-maximal degradation (DC50) and the Dmax was determined as 84.8%. In test [3], the half-maximal degradation concentration (DC50) came out at 3.1 nM and the Dmax amounted to 73.6%. Moreover, in test [4], the “Imax (%)” value came out at 98.7% and the half-maximal inhibitory concentration (IC50) was found to be 5.5 nM.
